Tests used:
CPC-N = experiment: cells; type: functional, cell-based; conditions: Homo sapiens;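 further: growth inhibition of CPC-N cells, with a cell viability assay as the readout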
Description: SANGER: Inhibition of human CPC-N cell growth in a cell viability assay.

DMS-153 = experiment: cells; type: functional, cell-based; conditions: Homo sapiens
Description: SANGER: Inhibition of human DMS-153 cell growth in a cell viability assay.

DSH1 = experiment: cells; type: functional, cell-based, Homo sapiens; conditions: Homo sapiens, DSH1;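 further: growth inhibition of human DSH1 cells, measured with a cell viability readout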
Description: SANGER: Inhibition of human DSH1 cell growth in a cell viability assay.

DU-145 = experiment: cells; type: functional, cell-based, Homo sapiens; conditions: Homo sapiens, DU-145
Description: SANGER: Inhibition of human DU-145 cell growth in a cell viability assay.

DU-4475 = experiment: cells; type: functional, cell-based; conditions: Homo sapiens
Description: SANGER: Inhibition of human DU-4475 cell growth in a cell viability assay.

EB2 = experiment: cells; type: functional, cell-based; conditions: Homo sapiens;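 further: growth inhibition of EB2 cells, read out with a cell viability assay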
Description: SANGER: Inhibition of human EB2 cell growth in a cell viability assay.

G-361 = experiment: cells; type: functional, cell-based, Homo sapiens; conditions: Homo sapiens, G-361
GB-1 = experiment: cells; type: functional, cell-based, Homo sapiens; conditions: Homo sapiens, GB-1;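 further: growth of GB-1 cells judged by a viability assay, IC50 marks the concentration inhibiting growth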
Description: SANGER: Inhibition of human GB-1 cell growth in a cell viability assay.

H4 = experiment: cells; type: functional, cell-based; conditions: Homo sapiens
Description: SANGER: Inhibition of human H4 cell growth in a cell viability assay.

HDLM-2 = experiment: cells; type: functional, cell-based; conditions: Homo sapiens;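 further: cell viability assay measuring suppression of HDLM-2 proliferation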
Description: SANGER: Inhibition of human HDLM-2 cell growth in a cell viability assay.

HSC-4 = experiment: cells; type: functional, cell-based, Homo sapiens; conditions: Homo sapiens, HSC-4;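 further: growth inhibition of human HSC-4 cells, read out with a cell viability assay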
Description: SANGER: Inhibition of human HSC-4 cell growth in a cell viability assay.

HT-1080 = experiment: cells; type: functional, cell-based, Homo sapiens; conditions: Homo sapiens, HT-1080
Description: SANGER: Inhibition of human HT-1080 cell growth in a cell viability assay.

HT-144 = experiment: cells; type: functional, cell-based, Homo sapiens; conditions: Homo sapiens, HT-144
Description: SANGER: Inhibition of human HT-144 cell growth in a cell viability assay.

HT55 = experiment: cells; type: functional, cell-based, Homo sapiens; conditions: Homo sapiens, HT55;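 further: cell viability readout measuring growth inhibition of human HT55 cells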
Description: SANGER: Inhibition of human HT55 cell growth in a cell viability assay.

J82 = experiment: cells; type: functional, cell-based; conditions: Homo sapiens;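 further: growth inhibition of J82 cells, read out with a cell viability assay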
Description: SANGER: Inhibition of human J82 cell growth in a cell viability assay.

LC4-1 = experiment: cells; type: functional, cell-based; conditions: Homo sapiens;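 further: growth inhibition of LC4-1 cells, read out with a cell viability assay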
Description: SANGER: Inhibition of human LC4-1 cell growth in a cell viability assay.

LS-123 = experiment: cells; type: functional, cell-based, Homo sapiens; conditions: Homo sapiens, LS-123
MC-CAR = experiment: cells; type: functional, cell-based; conditions: Homo sapiens;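 further: growth inhibition of the human MC-CAR cell line, read out by a cell viability assay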
Description: SANGER: Inhibition of human MC-CAR cell growth in a cell viability assay.

MEL-JUSO = experiment: cells; type: functional, cell-based, Homo sapiens; conditions: Homo sapiens, MEL-JUSO;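 further: growth inhibition of human MEL-JUSO cells, read out with a cell viability assay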
Description: SANGER: Inhibition of human MEL-JUSO cell growth in a cell viability assay.

NALM-6 = experiment: cells; type: functional, cell-based; conditions: Homo sapiens;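 further: growth inhibition of NALM-6 cells, read out with a cell viability assay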
Description: SANGER: Inhibition of human NALM-6 cell growth in a cell viability assay.

NCCIT = experiment: SANGER: Inhibition of human NCCIT cell growth in a cell viability assay.; type: functional, cell-based
NCI-H1395 = experiment: cells; type: functional, cell-based, Homo sapiens; conditions: Homo sapiens, NCI-H1395;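 further: cell viability assay read-out quantifying reduced proliferation of human NCI-H1395 cells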
Description: SANGER: Inhibition of human NCI-H1395 cell growth in a cell viability assay.

NCI-H1522 = experiment: cells; type: functional, cell-based; conditions: Homo sapiens;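 further: growth inhibition of NCI-H1522 cells, read out with a cell viability assay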
Description: SANGER: Inhibition of human NCI-H1522 cell growth in a cell viability assay.

NCI-H1573 = experiment: cells; type: functional, cell-based; conditions: Homo sapiens;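 further: growth inhibition of NCI-H1573 cells, read out with a cell viability assay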
Description: SANGER: Inhibition of human NCI-H1573 cell growth in a cell viability assay.

NCI-H1792 = experiment: cells; type: functional, cell-based, Homo sapiens; conditions: Homo sapiens, NCI-H1792;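 further: growth inhibition of human NCI-H1792 cells, read out as cell viability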
Description: SANGER: Inhibition of human NCI-H1792 cell growth in a cell viability assay.

NCI-H441 = experiment: cells; type: functional, cell-based; conditions: Homo sapiens;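 further: growth inhibition of NCI-H441 cells, read out with a cell viability assay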
Description: SANGER: Inhibition of human NCI-H441 cell growth in a cell viability assay.

NCI-H522 = experiment: cells; type: functional, cell-based, Homo sapiens; conditions: Homo sapiens, NCI-H522;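 further: cell viability assay measuring growth inhibition of human NCI-H522 cells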
Description: SANGER: Inhibition of human NCI-H522 cell growth in a cell viability assay.

NCI-H524 = experiment: cells; type: functional, cell-based; conditions: Homo sapiens;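 further: growth inhibition of human NCI-H524 cells, read out through a cell viability assay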
Description: SANGER: Inhibition of human NCI-H524 cell growth in a cell viability assay.

NCI-H64 = experiment: cells; type: functional, cell-based; conditions: Homo sapiens;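 further: growth inhibition of NCI-H64 cells, read out with a cell viability assay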
Description: SANGER: Inhibition of human NCI-H64 cell growth in a cell viability assay.

NCI-H748 = experiment: cells; type: functional, cell-based; conditions: Homo sapiens;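 further: growth inhibition of NCI-H748 cells, measured by a cell viability assay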
Description: SANGER: Inhibition of human NCI-H748 cell growth in a cell viability assay.

NCI-H889 = experiment: cells; type: functional, cell-based; conditions: Homo sapiens;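 further: cell growth inhibition of the cell line, read out with a viability assay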
Description: SANGER: Inhibition of human NCI-H889 cell growth in a cell viability assay.

PA-1 = experiment: cells; type: functional, cell-based, Homo sapiens; conditions: Homo sapiens, PA-1;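 further: IC50 for suppression of PA-1 cell proliferation, determined with a cell viability read-out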
Description: SANGER: Inhibition of human PA-1 cell growth in a cell viability assay.

PC-14 = experiment: cells; type: functional, cell-based, Homo sapiens; conditions: Homo sapiens, PC-14;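 further: cell viability assay measuring inhibition of PC-14 cell growth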
Description: SANGER: Inhibition of human PC-14 cell growth in a cell viability assay.

REH = experiment: cells; type: functional, cell-based; conditions: Homo sapiens;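 further: growth inhibition of REH cells determined with a cell viability read-out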
Description: SANGER: Inhibition of human REH cell growth in a cell viability assay.

RPMI 8402 = experiment: SANGER: Inhibition of human RPMI-8402 cell growth in a cell viability assay.; type: functional, cell-based
SIG-M5 = experiment: cells; type: functional, cell-based; conditions: Homo sapiens;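 further: cell viability assay read-out, measuring how strongly growth of cultured human SIG-M5 cells is inhibited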
Description: SANGER: Inhibition of human SIG-M5 cell growth in a cell viability assay.

SK-MEL3 = experiment: cells; type: functional, cell-based, Homo sapiens, SK-MEL-3; conditions: Homo sapiens, SK-MEL3;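 further: growth inhibition of human SK-MEL-3 cells, read out with a cell viability assay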
Description: SANGER: Inhibition of human SK-MEL-3 cell growth in a cell viability assay.

SNU-423 = experiment: cells; type: functional, cell-based, Homo sapiens; conditions: Homo sapiens, SNU-423
Description: SANGER: Inhibition of human SNU-423 cell growth in a cell viability assay.

SR = experiment: cells; type: functional, cell-based; conditions: Homo sapiens
Description: SANGER: Inhibition of human SR cell growth in a cell viability assay.

ST486 = experiment: SANGER: Inhibition of human ST486 cell growth in a cell viability assay.; type: functional, cell-based
TALL-1 = experiment: cells; type: functional, cell-based; conditions: Homo sapiens;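 further: growth inhibition of cultured human TALL-1 cells, read out by a cell viability assay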
Description: SANGER: Inhibition of human TALL-1 cell growth in a cell viability assay.

23132-87 = experiment: cells; type: functional, cell-based, Homo sapiens; conditions: Homo sapiens
Description: SANGER: Inhibition of human 23132-87 cell growth in a cell viability assay.

A3-KAW = experiment: cells; type: functional, cell-based; conditions: Homo sapiens;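 further: growth inhibition of human A3-KAW cells, read out with a cell viability assay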
Description: SANGER: Inhibition of human A3-KAW cell growth in a cell viability assay.

AU565 = experiment: cells; type: functional, cell-based, Homo sapiens; conditions: Homo sapiens, AU565;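 further: cell viability assay measuring growth inhibition of human AU565 cells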
Description: SANGER: Inhibition of human AU565 cell growth in a cell viability assay.

BC-3 = experiment: cells; type: functional, cell-based; conditions: Homo sapiens;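 further: cell viability assay measuring growth inhibition of human BC-3 cells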
Description: SANGER: Inhibition of human BC-3 cell growth in a cell viability assay.

TE-441-T = experiment: cells; type: functional, cell-based; conditions: Homo sapiens
Description: SANGER: Inhibition of human TE-441-T cell growth in a cell viability assay.

TE-6 = experiment: cells; type: functional, cell-based, Homo sapiens; conditions: Homo sapiens, TE-6;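 further: growth inhibition of TE-6 cells, read out with a cell viability assay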
Description: SANGER: Inhibition of human TE-6 cell growth in a cell viability assay.

THP-1 = experiment: cells; type: functional, cell-based; conditions: Homo sapiens;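 further: growth inhibition of THP-1 cells, read out via a cell viability assay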
Description: SANGER: Inhibition of human THP-1 cell growth in a cell viability assay.

TUR = experiment: cells; type: functional, cell-based; conditions: Homo sapiens;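 further: growth inhibition of human TUR cells, read out with a cell viability assay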
Description: SANGER: Inhibition of human TUR cell growth in a cell viability assay.

U-698-M = experiment: cells; type: functional, cell-based; conditions: Homo sapiens
Description: SANGER: Inhibition of human U-698-M cell growth in a cell viability assay.

no-11 = experiment: cells; type: functional, cell-based, Homo sapiens; conditions: Homo sapiens;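 further: growth inhibition of human NO-11 cells, read out with a cell viability assay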
Description: SANGER: Inhibition of human no-11 cell growth in a cell viability assay.

CGTH-W-1 = experiment: cells; type: functional, cell-based, Homo sapiens; conditions: Homo sapiens, CGTH-W-1;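 further: growth inhibition of human CGTH-W-1 cells measured by cell viability assay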
Description: SANGER: Inhibition of human CGTH-W-1 cell growth in a cell viability assay.

CMK = experiment: cells; type: functional, cell-based; conditions: Homo sapiens;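 further: growth inhibition of CMK cells, read out as cell viability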
Description: SANGER: Inhibition of human CMK cell growth in a cell viability assay.

COLO-680N = experiment: cells; type: functional, cell-based, Homo sapiens; conditions: Homo sapiens, COLO-680N;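 further: cell viability assay used to measure inhibition of COLO-680N cell growth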
Description: SANGER: Inhibition of human COLO-680N cell growth in a cell viability assay.

MOLT-13 = experiment: cells; type: functional, cell-based; conditions: Homo sapiens;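 further: IC50 for suppression of MOLT-13 cell growth, read out with a cell viability assay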
Description: SANGER: Inhibition of human MOLT-13 cell growth in a cell viability assay.

Measured: IC50

Cc1ccc(Nc2nccc(N(C)c3ccc4c(C)n(C)nc4c3)n2)cc1S(N)(=O)=O [PAZOPANIB]
0.988 µM: HT55
0.04 µM: CGTH-W-1
5.73 µM: GB-1
2.06 µM: J82
5.97 µM: NCI-H1573
2.51 µM: H4
3.04 µM: G-361
3.28 µM: EB2
not listed: MOLT-13
> 8 µM: all other assays above

CCc1nc(N)nc(N)c1-c1ccc(Cl)cc1 [PYRIMETHAMINE]
6.93 µM: NCCIT
19.8 µM: NALM-6
9.31 µM: ST486
8.12 µM: RPMI 8402
19.5 µM: BC-3
16.5 µM: SR
4.98 µM: DSH1
2.46 µM: CMK
9.44 µM: A3-KAW
7.98 µM: SIG-M5
6.8 µM: HT-144
17.5 µM: CGTH-W-1
not listed: DU-145 | G-361 | H4 | HSC-4 | HT-1080 | HT55 | J82 | MEL-JUSO | NCI-H1573 | NCI-H1792 | NCI-H441 | NCI-H522 | PA-1 | PC-14 | SK-MEL3 | SNU-423 | 23132-87 | AU565 | COLO-680N
> 20 µM: all other assays above

O=C(/C=C/c1ccccc1)NC(NC(=S)Nc1cccc2cccnc12)C(Cl)(Cl)Cl (stereo unspecified) [SALUBRINAL]
11.6 µM: NCCIT
13.7 µM: CMK
14.8 µM: BC-3
8.43 µM: A3-KAW
8.54 µM: ST486
13.1 µM: NALM-6
not listed: DU-145 | G-361 | H4 | HSC-4 | HT-1080 | HT55 | J82 | MEL-JUSO | NCI-H1573 | NCI-H1792 | NCI-H441 | NCI-H522 | PA-1 | PC-14 | SK-MEL3 | SNU-423 | 23132-87 | AU565 | COLO-680N
> 16 µM: all other assays above
